Test results: patent US20130316027A1, “ANTIMICROBIAL COMPOSITION” (priority 2011, published 2013)

Tests used:
FCV (Feline Calcivirus) = test: Virucidal suspension test (EN14476), viral kill of FCV; format: cell-based, Feline Calicivirus; details: contact time five minutes, clean conditions (bovine albumin)
Protocol: (§1) The virucidal activity of various test solutions were measured using the following protocol.
(§2) A standard EST protocol (EN14476) was followed for the evaluation of activity of antiviral actives in suspension test. Antiviral activity of actives was tested in clean conditions.
(§3) Clean conditions: To create clean conditions, 0.3 g of bovine albumin fraction V was dissolved in 100 ml of water and sterilised by passing the solution through a 0.2 μm filter).
(§4) Preparation of test mixture: To prepare the test mixture, 1 ml of interfering substance (Bovine Albumin) was pipetted into a suitable container, followed by addition of 1 ml of test virus suspension. To this, 8 ml of product test solution was added. At the end of chosen contact time period, 100 μl of the test mixture was added to resin column. Centrifugation of microspin column (735×g, 2 min). The elutant was diluted up to 10^−6 in ice cold virus growth medium. The infectivity of each dilution was measured by TCID50 using the Spaerman-Karber formula. Titration of Virus: Monolayers of cells were grown in 96-well tissue-culture plates (Costar) at 37° C. in an atmosphere of 95% air and 5% carbon dioxide (CO2). Tenfold dilutions of virus suspension were prepared in virus growth medium. One hundred microlitres of each dilution was added to five replicate wells in 96-well tissue-culture plates. Cell controls were included on each plate. Plates were incubated at 37° C. in an atmosphere of 95% air/5% CO2. Cultures were observed daily for viral cytopathic effect for a period of seven days after which they were discarded. The virus titre was calculated by TCID50 (Tissue culture infective dose) using the Spaerman-Karber formula.
(§5) Negative logarithm of the 50% end point=Negative logarithm of the highest virus concentration used−[(Sum of % affected at each dilution/100−0.5)×([…])]
Various compositions as shown in Table-1 were prepared and their virucidal activity was measured using the procedure given earlier. […]
Various compositions as shown in Table-4 were prepared and their virucidal activity was measured using the procedure given earlier. […]

[1] = system: RSV (Respiratory syncitial virus); test: Virucidal suspension test (EN14476), virus kill of RSV; format: cell-based; details: contact time five minutes, clean conditions (bovine albumin)
Protocol: as §1, §2, §3, §4, §5
Various compositions as shown in Table-2 were prepared and their virucidal activity was measured using the procedure given earlier. […]
Various compositions as shown in Table-5 were prepared and their virucidal activity was measured using the procedure given earlier. […]

MS2 Phage = test: Virucidal suspension test (EN14476), virus kill of MS-2 bacteriophage; format: cell-based; details: contact time five minutes, clean conditions (bovine albumin), MS2 Phage control 6.36, Table 3
Protocol: as §1, §2, §3
Preparation of test mixture: To prepare the test mixture, 1 ml of interfering substance (Bovine Albumin) was pipetted into a suitable container, followed by addition of 1 ml of test virus suspension. To this, 8 ml of product test solution was added. At the end of chosen contact time period, 100 μl of the test mixture was added to resin column. Centrifugation of microspin column (735×g, 2 min). The elutant was diluted up to 10^−6 in ice cold virus growth medium. The infectivity of each dilution was measured by TCID50 using the Spaerman-Karber formula. Titration of Virus: Monolayers of cells were grown in 96-well tissue-culture plates (Costar) at 37° C. in an atmosphere of 95% air and 5% carbon dioxide (CO2). […] The virus titre was calculated by TCID50 (Tissue culture infective dose) using the Spaerman-Karber formula. […]
Various compositions as shown in Table-3 were prepared and their virucidal activity was measured using the procedure given earlier. […]

Compound | amount of virus remaining, Log TCID50/0.1 ml (FCV (Feline Calcivirus); FCV Control 4.50, Table 1) [Log TCID50/0.1 ml] | amount of virus remaining, Log TCID50/0.1 ml ([1]; RSV Control 5.00, Table 2) [Log TCID50/0.1 ml] | amount of virus remaining, Log TCID50/0.1 ml (FCV (Feline Calcivirus); FCV Control 5.50, Table 4) [Log TCID50/0.1 ml] | amount of virus remaining, Log TCID50/0.1 ml ([1]; RSV Control 4.70, Table 5) [Log TCID50/0.1 ml] | amount of virus remaining, Log TCID50/0.1 ml (MS2 Phage) [Log TCID50/0.1 ml]
COc1cc(/C=C/C(=O)CC(=O)/C=C/c2ccc(O)c(OC)c2)ccc1O [Example 3, Curcumin] | 3.40 | 4.65 | – | – | –
benzalkonium chloride [Example 10] | – | – | 3.10 | 3.90 | 1.94
benzalkonium chloride [Example 2] | 3.25 | 2.50 | – | – | –
